Test results as given in US20230202975A1 (Recordati Industria Chimica e Farmaceutica S.p.A., priority 2021, published 2023).
Values belong to the molecule of their own block, whether it stands above or below them.

Key:
Format in all cases: physicochemical
[1] = Bulk density and tapped density (Ph. Eur. 2.9.34), Hausner ratio; details: average of three samples, after drying under vacuum
Experimental: Bulk density and Tapped density: were measured according to the method of pharmacopoeia (Ph. Eur. 2.9.34). 100 g of sample was weighed and then placed in the test tube, noting the apparent volume without any type of treatment to the sample. Afterwards, 10, 500 and 1250 taps are made using the automatic volumeter (Model: Schleuniger JV2000, Equipment code: CE9), noting the apparent volumes obtained in these three tests. In the event that the difference between the volume obtained for the 500 and 1250 taps was greater than 2 ml, the operation was repeated in increments of 1250 taps until the difference within measurements is less than or equal to 2 ml. For each batch the test was carried out in duplicate.
The bulk density and tapped density were calculated according to the following equations: […]
where m is the amount of sample weighed expressed in grams and V0 is the apparent uncompacted volume expressed in milliliters. Tapped density:
Another parameter relevant for evaluating powder flowability is the Hausner ratio namely the ratio between tapped and bulk densities. Generally, a Hausner ratio of higher than 1.50 indicates a very poor flowability (Powder properties in food production systems, Handbook of Food Powders, Ed.: Bhesh Bhandari, Nidhi Bansal, Min Zhang, Pierre Schuck, Woodhead Publishing, 2013, chapter 12, page 298).

[2] = Particle size distribution (laser particle size analyser, Ph. Eur. 2.9.31)
Experimental: Particle size distribution was evaluated in line with European Pharmacopeia 2.9.31 with the instrument and according to sample preparation and test conditions reported in the following Table 3: […]

[3] = pH of aqueous solution (potentiometric); details: 100 mg of sample dissolved in 10 ml of water
Experimental: Keys: ^1 pH was determined potentiometncally on a solution of 100 mg of sample dissolved in 10 ml of water; HPLC purity is expressed as area percentage (area of the peak/total area×100); DMT: 2,2-dimethylthiazolidine.

Molecule: NCCS.O=C(O)C(O)C(O)C(=O)O (stereo not shown) [Example 10A, Cysteamine Bitartrate]
Bulk density ([1]; listed as Cysteamine Bitartrate crystallized according to the process of the present inven): 0.301 g/mL
Bulk density ([1]; listed as Ex. 10A): 0.301 g/mL
Tapped density ([1]; listed as Ex. 10A): 0.423 g/mL

Molecule: NCCS.O=C(O)C(O)C(O)C(=O)O (stereo not shown) [Example 10B, Cysteamine Bitartrate, reference compound]
Bulk density ([1]; listed as Cysteamine Bitartrate crystallized according to the prior art process (direct ad)): 0.279 g/mL
Bulk density ([1]; listed as Ex. 10B): 0.279 g/mL
Tapped density ([1]; listed as Ex. 10B): 0.442 g/mL

Molecule: NCCS.O=C(O)C(O)C(O)C(=O)O (stereo not shown) [Example C1, Cysteamine Bitartrate]
Particle Size, compliance with specification D50 <150 mic [2]: ~65%
Particle Size, compliance with specification D90 <450 mic [2]: (100%)

Molecule: NCCS.O=C(O)C(O)C(O)C(=O)O (stereo not shown) [Example C2, Cysteamine Bitartrate]
Particle Size, compliance with specification D50 <150 mic [2]: ~55%
Particle Size, compliance with specification D90 <450 mic [2]: (100%)

Molecule: NCCS.O=C(O)C(O)C(O)C(=O)O (stereo not shown) [Example C3, Cysteamine Bitartrate]
Particle Size, compliance with specification D50 <150 mic [2]: ~53%
Particle Size, compliance with specification D90 <450 mic [2]: (100%)

Molecule: NCCS.O=C(O)C(O)C(O)C(=O)O (stereo not shown) [Example R1, Cysteamine Bitartrate]
Particle Size, compliance with specification D50 <150 mic [2]: (100%)
Particle Size, compliance with specification D90 <450 mic [2]: (100%)

Molecule: NCCS.O=C(O)C(O)C(O)C(=O)O (stereo not shown) [Example R2, Cysteamine Bitartrate]
Particle Size, compliance with specification D50 <150 mic [2]: (100%)
Particle Size, compliance with specification D90 <450 mic [2]: (100%)

Molecule: NCCS.O=C(O)C(O)C(O)C(=O)O (stereo not shown) [Example R3, Cysteamine Bitartrate]
Particle Size, compliance with specification D50 <150 mic [2]: (100%)
Particle Size, compliance with specification D90 <450 mic [2]: (100%)

pH [3]: 3.53
Molecule: Cysteamine Bitartrate [Example 2]
